Assay results from the NIST ThermoML archive (doi:10.1021/je900691n).
± gives the expanded uncertainty stated by the source.

Assay: xn = mol fraction of the nth substance listed
Conditions: Liquid, Pycnometric method

COC(=O)OC [dimethyl carbonate] + O=C=O
Conditions | mass density [kg/m3]
313.15 K, 12790 kPa, x1 = 0.1484 | 951 ± 4
313.15 K, 12900 kPa, x1 = 0.0242 | 816 ± 4
313.15 K, 12950 kPa, x1 = 0.0481 | 856 ± 4
313.15 K, 13250 kPa, x1 = 0.118 | 940 ± 4
313.15 K, 13270 kPa, x1 = 0.0242 | 823 ± 4
313.15 K, 13310 kPa, x1 = 0.1484 | 955 ± 4
313.15 K, 13450 kPa, x1 = 0.0481 | 863 ± 4
313.15 K, 13580 kPa, x1 = 0.086 | 911 ± 4
313.15 K, 13640 kPa, x1 = 0.0242 | 828 ± 4
313.15 K, 13730 kPa, x1 = 0.118 | 943 ± 4
313.15 K, 13790 kPa, x1 = 0.1484 | 957 ± 4
313.15 K, 13960 kPa, x1 = 0.0242 | 833 ± 4
313.15 K, 13980 kPa, x1 = 0.0481 | 869 ± 4
313.15 K, 14120 kPa, x1 = 0.086 | 915 ± 4
313.15 K, 14140 kPa, x1 = 0.0242 | 836 ± 4
313.15 K, 14270 kPa, x1 = 0.118 | 947 ± 4
313.15 K, 14430 kPa, x1 = 0.1484 | 961 ± 4
313.15 K, 14560 kPa, x1 = 0.0242 | 842 ± 4
313.15 K, 14620 kPa, x1 = 0.0481 | 877 ± 4
313.15 K, 14750 kPa, x1 = 0.086 | 920 ± 4
313.15 K, 14950 kPa, x1 = 0.0242 | 847 ± 4
313.15 K, 15100 kPa, x1 = 0.1484 | 965 ± 4
313.15 K, 15210 kPa, x1 = 0.0481 | 882 ± 4
313.15 K, 15220 kPa, x1 = 0.068 | 924 ± 4
313.15 K, 15230 kPa, x1 = 0.0242 | 851 ± 4
313.15 K, 15650 kPa, x1 = 0.1484 | 968 ± 4
313.15 K, 15900 kPa, x1 = 0.0481 | 890 ± 4
313.15 K, 15930 kPa, x1 = 0.068 | 930 ± 4
313.15 K, 16400 kPa, x1 = 0.068 | 933 ± 4
313.15 K, 16470 kPa, x1 = 0.1484 | 972 ± 4
317.85 K, 8660 kPa, x1 = 0.0242 | 476 ± 4
317.85 K, 8710 kPa, x1 = 0.0242 | 485 ± 4
317.85 K, 8720 kPa, x1 = 0.0242 | 490 ± 4
317.85 K, 8750 kPa, x1 = 0.0242 | 498 ± 4
317.85 K, 8780 kPa, x1 = 0.0242 | 506 ± 4
317.85 K, 8820 kPa, x1 = 0.0242 | 517 ± 4
317.85 K, 8880 kPa, x1 = 0.0242 | 529 ± 4
317.85 K, 8930 kPa, x1 = 0.0242 | 542 ± 4
317.85 K, 9000 kPa, x1 = 0.0242 | 555 ± 4
317.85 K, 9070 kPa, x1 = 0.0242 | 569 ± 4
317.85 K, 9150 kPa, x1 = 0.0242 | 583 ± 4
317.85 K, 9250 kPa, x1 = 0.0242 | 599 ± 4
317.85 K, 9350 kPa, x1 = 0.0242 | 611 ± 4
317.85 K, 9500 kPa, x1 = 0.0242 | 628 ± 4
317.85 K, 9710 kPa, x1 = 0.0242 | 646 ± 4
317.85 K, 9910 kPa, x1 = 0.0242 | 663 ± 4
318.15 K, 7340 kPa, x1 = 0.1484 | 884 ± 4
318.15 K, 7630 kPa, x1 = 0.118 | 856 ± 4
318.15 K, 7820 kPa, x1 = 0.1484 | 889 ± 4
318.15 K, 7850 kPa, x1 = 0.118 | 859 ± 4
318.15 K, 8020 kPa, x1 = 0.086 | 802 ± 4
318.15 K, 8190 kPa, x1 = 0.118 | 864 ± 4
318.15 K, 8270 kPa, x1 = 0.1484 | 894 ± 4
318.15 K, 8410 kPa, x1 = 0.086 | 812 ± 4
318.15 K, 8550 kPa, x1 = 0.0481 | 683 ± 4
318.15 K, 8610 kPa, x1 = 0.118 | 870 ± 4
318.15 K, 8700 kPa, x1 = 0.0481 | 693 ± 4
318.15 K, 8780 kPa, x1 = 0.1484 | 899 ± 4
318.15 K, 8830 kPa, x1 = 0.086 | 820 ± 4
318.15 K, 8880 kPa, x1 = 0.0481 | 706 ± 4
318.15 K, 9130 kPa, x1 = 0.118 | 876 ± 4
318.15 K, 9140 kPa, x1 = 0.0481 | 721 ± 4
318.15 K, 9160 kPa, x1 = 0.086 | 827 ± 4
318.15 K, 9300 kPa, x1 = 0.1484 | 904 ± 4
318.15 K, 9450 kPa, x1 = 0.0481 | 735 ± 4
318.15 K, 9580 kPa, x1 = 0.118 | 882 ± 4
318.15 K, 9760 kPa, x1 = 0.0481 | 748 ± 4
318.15 K, 9800 kPa, x1 = 0.1484 | 908 ± 4
318.15 K, 9810 kPa, x1 = 0.086 | 838 ± 4
318.15 K, 10180 kPa, x1 = 0.118 | 889 ± 4
318.15 K, 10200 kPa, x1 = 0.0481 | 758 ± 4
318.15 K, 10260 kPa, x1 = 0.086 | 845 ± 4
318.15 K, 10270 kPa, x1 = 0.1484 | 912 ± 4
318.15 K, 10720 kPa, x1 = 0.1484 | 916 ± 4
318.15 K, 10740 kPa, x1 = 0.0481 | 777 ± 4
318.15 K, 10750 kPa, x1 = 0.118 | 895 ± 4
318.15 K, 10820 kPa, x1 = 0.086 | 853 ± 4
318.15 K, 11190 kPa, x1 = 0.086 | 858 ± 4
318.15 K, 11230 kPa, x1 = 0.1484 | 920 ± 4
318.15 K, 11250 kPa, x1 = 0.0481 | 789 ± 4
318.15 K, 11280 kPa, x1 = 0.118 | 900 ± 4
318.15 K, 11720 kPa, x1 = 0.1484 | 924 ± 4
318.15 K, 11740 kPa, x1 = 0.086 | 865 ± 4
318.15 K, 11770 kPa, x1 = 0.0481 | 800 ± 4
318.15 K, 11800 kPa, x1 = 0.118 | 905 ± 4
318.15 K, 12230 kPa, x1 = 0.086 | 871 ± 4
318.15 K, 12240 kPa, x1 = 0.0481 | 809 ± 4
318.15 K, 12260 kPa, x1 = 0.1484 | 928 ± 4
318.15 K, 12280 kPa, x1 = 0.118 | 909 ± 4
318.15 K, 12690 kPa, x1 = 0.086 | 876 ± 4
318.15 K, 12720 kPa, x1 = 0.0481 | 818 ± 4
318.15 K, 12770 kPa, x1 = 0.118 | 913 ± 4
318.15 K, 12820 kPa, x1 = 0.1484 | 932 ± 4
318.15 K, 13270 kPa, x1 = 0.086 | 882 ± 4
318.15 K, 13280 kPa, x1 = 0.0481 | 826 ± 4
318.15 K, 13290 kPa, x1 = 0.118 | 918 ± 4
318.15 K, 13410 kPa, x1 = 0.1484 | 936 ± 4
318.15 K, 13730 kPa, x1 = 0.0481 | 833 ± 4
318.15 K, 13750 kPa, x1 = 0.118 | 922 ± 4
318.15 K, 13840 kPa, x1 = 0.086 | 888 ± 4
318.15 K, 13900 kPa, x1 = 0.1484 | 939 ± 4
318.15 K, 14240 kPa, x1 = 0.0481 | 841 ± 4
318.15 K, 14240 kPa, x1 = 0.118 | 925 ± 4
318.15 K, 14290 kPa, x1 = 0.086 | 893 ± 4
318.15 K, 14390 kPa, x1 = 0.1484 | 942 ± 4
318.15 K, 14710 kPa, x1 = 0.0481 | 847 ± 4
318.15 K, 14720 kPa, x1 = 0.118 | 929 ± 4
318.15 K, 14830 kPa, x1 = 0.086 | 898 ± 4
318.15 K, 15140 kPa, x1 = 0.1484 | 947 ± 4
318.15 K, 15250 kPa, x1 = 0.118 | 933 ± 4
318.15 K, 15280 kPa, x1 = 0.086 | 902 ± 4
318.15 K, 15300 kPa, x1 = 0.0481 | 854 ± 4
318.15 K, 15760 kPa, x1 = 0.086 | 906 ± 4
318.15 K, 15770 kPa, x1 = 0.1484 | 950 ± 4
318.15 K, 15820 kPa, x1 = 0.118 | 937 ± 4
318.15 K, 16250 kPa, x1 = 0.0481 | 865 ± 4
318.15 K, 16260 kPa, x1 = 0.118 | 940 ± 4
318.15 K, 16300 kPa, x1 = 0.086 | 910 ± 4
318.15 K, 16420 kPa, x1 = 0.1484 | 955 ± 4
323.15 K, 7960 kPa, x1 = 0.1484 | 862 ± 4
323.15 K, 8290 kPa, x1 = 0.118 | 829 ± 4
323.15 K, 8310 kPa, x1 = 0.1484 | 866 ± 4
323.15 K, 8540 kPa, x1 = 0.118 | 833 ± 4
323.15 K, 8690 kPa, x1 = 0.086 | 762 ± 4
323.15 K, 8770 kPa, x1 = 0.1484 | 872 ± 4
323.15 K, 8880 kPa, x1 = 0.086 | 769 ± 4
323.15 K, 8960 kPa, x1 = 0.118 | 840 ± 4
323.15 K, 9020 kPa, x1 = 0.0242 | 394 ± 4
323.15 K, 9080 kPa, x1 = 0.0242 | 401 ± 4
323.15 K, 9120 kPa, x1 = 0.0242 | 408 ± 4
323.15 K, 9170 kPa, x1 = 0.0242 | 417 ± 4
323.15 K, 9180 kPa, x1 = 0.0481 | 607 ± 4
323.15 K, 9220 kPa, x1 = 0.086 | 779 ± 4
323.15 K, 9230 kPa, x1 = 0.0242 | 427 ± 4
323.15 K, 9250 kPa, x1 = 0.1484 | 877 ± 4
323.15 K, 9260 kPa, x1 = 0.0481 | 617 ± 4
323.15 K, 9280 kPa, x1 = 0.0242 | 436 ± 4
323.15 K, 9310 kPa, x1 = 0.118 | 845 ± 4
323.15 K, 9350 kPa, x1 = 0.0242 | 447 ± 4
323.15 K, 9410 kPa, x1 = 0.0242 | 458 ± 4
323.15 K, 9410 kPa, x1 = 0.0481 | 638 ± 4
323.15 K, 9480 kPa, x1 = 0.0242 | 470 ± 4
323.15 K, 9550 kPa, x1 = 0.0242 | 482 ± 4
323.15 K, 9570 kPa, x1 = 0.0481 | 650 ± 4
